Data from patent US4027005A, “Diagnostic agents” (New England Nuclear Corporation, priority 1974, dated 1977).
Where two headings read alike, the source gives them in different places.

Tests used:
[1] = Comparative one hour rat organ distribution and organ uptake contrast ratios; format: in vivo; conditions: i.v.; for Kidney/G.I. organ uptake contrast ratio / Kidney/liver organ uptake contrast ratio / Kidney/blood organ uptake contrast ratio: activity per gram; for Kidney/blood organ uptake contrast ratio: 60 min; for Blood, organ distribution / G.I., organ distribution / Kidney, organ distribution / Liver, organ distribution: decay corrected, average of at least two animals
Description: Each of the foregoing renal scanning agents is aseptically intravenously injected (0.25 ml containing about 3-5 mCi) into adult rats. One hour later the rats are sacrificed, and the blood collected, weighed and counted. The organs of interest, e.g. the kidney, the liver, and the gastrointestinal tract, are individually weighed and the radioactivity contained therein counted. The amount of radioactivity injected is determined by counting the radioactivity in the syringe before and after injection. The organ distribution values are reported as the percent of the activity injected which is observed in the organ, corrected for the radioactive decay of technetium. The organ uptake contrast ratios are determined by determining the relative activity contained per gram of the organs compared.

[2] = Acute toxicity in mice, intravenous; format: in vivo
[3] = Sub-acute toxicity in dogs; format: in vivo; conditions: 19 mg/kg per day for 14 days
[4] = Sub-acute toxicity in mice; format: in vivo; conditions: mice, 800, 400 and 80 mg/kg per day for 15 days
[5] = system: infarcted myocardial tissue; assay: Infarction tests: accumulation in infarcted myocardial tissue; format: in vivo, rat; conditions: for ratio B: activity per gram of infarcted tissue to activity per gram in the blood: 60 min
Description: In each case a myocardial infarct is produced in adult rats by surgery. In Example 9, doses of about 3-5 mCi each of the glucoheptonate and tetracycline agents respectively are injected three hours after infarct was induced. The animals are sacrificed one hour after injection and the heart removed. The infarcted tissue, which is visibly distinguishable from normal myocardial tissue, was excised, weighed and counted. The normal myocardial tissue was also weighed and its activity counted and the results are reported as the ratio of the activity per gram of the infarcted tissue to the activity per gram of the normal tissue (A), and the ratio of the activity per gram of the infarcted tissue to activity per gram in the blood (B). Example 10 reports similar results, the difference being that in that example the radionuclides were injected into the live rats eighteen hours after the infarct was induced, rather than three hours.

[6] = Distribution data in rats of the glucoheptonate agent; conditions: within one hour post injection
[7] = Urinary excretion in humans; conditions: within the first hour after injection, 60 min
[8] = cited from earlier work
[9] = Example 9: rat, injected three hours after infarct, sacrificed one hour after injection
[10] = Example 10: rat, injected eighteen hours after infarct

Compound | Kidney/G.I. organ uptake contrast ratio [1] | Kidney/liver organ uptake contrast ratio [1] | Kidney/blood organ uptake contrast ratio [1] | Blood, organ distribution [1] | G.I., organ distribution [1] | Kidney, organ distribution [1] | Liver, organ distribution [1] | also measured
O=C(O)[C@H](O)[C@@H](O)[C@H](O)[C@H](O)CO [Example 5] | 55 | 50 | 40 | 2.3% of the activity inject | 4.8% of the activity inject | 16% of the activity inject | 1.4% of the activity inject | –
stannous glucoheptonate | – | – | – | – | – | – | – | acute toxicity level (LD50) [2]: about 1500 mg/kg; sub-acute toxicity [3]: no untoward effects; sub-acute toxicity [4]: no ill effects
technetium-99m-stannous-glucoheptonate [Example 1] | 44 | 115 | 105 | 1.1% of the activity inject | 5.0% of the activity inject | 18% of the activity inject | 0.7% of the activity inject | ratio A: activity per gram of infarcted tissue to activity per gram of normal tissue [5, 9]: 10.3; ratio B: activity per gram of infarcted tissue to activity per gram in the blood [5, 9]: 4.5; ratio A: activity per gram of infarcted tissue to activity per gram of normal tissue [5, 10]: 6.7; ratio B: activity per gram of infarcted tissue to activity per gram in the blood [5, 10]: 3.2; preferential accumulation in infarcted tissue (in words) ([5]; Examples 9 and 10): more effective in preferentially accumulating in infarcted, rather than normal, tissue than the tetracycline infarct agent; total blood activity [6]: less than 2%; injected dose excreted in the urine [7]: about 25%
O=C(O)Cn1cc([131I])c(=O)c([131I])c1.OCCNCCO [131 I-iodopyracet] | – | – | – | – | – | – | – | accumulation, retention or elimination of prior agents (in words) ([8]; in vivo): simultaneous accumulation in surrounding tissue, especially the liver
O=C(O)[C@H](O)[C@@H](O)[C@H](O[C@@H]1O[C@H](CO)[C@H](O)[C@H](O)[C@H]1O)[C@H](O)CO [Example 2] | 57 | 102 | 82 | 1.8% of the activity inject | 6.2% of the activity inject | 23% of the activity inject | 1.3% of the activity inject | –
O=C(O)CNC(=O)c1ccccc1[131I] [131 I-iodohippuran] | – | – | – | – | – | – | – | accumulation, retention or elimination of prior agents (in words) ([8]; prior art): predominantly eliminated through active secretion by tubular cells
technetium-99m-stannous-DTPA [Example 7] | 65 | 77 | 32 | 1.0% of the activity inject | 1.1% of the activity inject | 5.0% of the activity inject | 0.3% of the activity inject | Kidney/blood organ uptake contrast ratio ([1]; listed as DTPA): 22
technetium-99m-stannous-tetracycline [Tetracycline complex, reference compound] | – | – | – | – | – | – | – | ratio A: activity per gram of infarcted tissue to activity per gram of normal tissue [5, 9]: 5.9; ratio A: activity per gram of infarcted tissue to activity per gram of normal tissue [5, 10]: 3.7
